Twelve compounds from patent US20260234157A1, “COMPOUND AND METHOD FOR TARGETED DEGRADATION OF ANDROGEN RECEPTOR” (Gan & Lee Pharmaceuticals Co., Ltd., priority 2023, published 2026) can be followed below.

What all share (type): cell-based
Test [1] addresses T1, AR protein (Homo sapiens, UniProt P10275).
T1 construct: degradation activity of the compounds disclosed in the present disclosure on AR protein in VCaP cells; host or cells: VCaP
T1 sequence (P10275 1-920): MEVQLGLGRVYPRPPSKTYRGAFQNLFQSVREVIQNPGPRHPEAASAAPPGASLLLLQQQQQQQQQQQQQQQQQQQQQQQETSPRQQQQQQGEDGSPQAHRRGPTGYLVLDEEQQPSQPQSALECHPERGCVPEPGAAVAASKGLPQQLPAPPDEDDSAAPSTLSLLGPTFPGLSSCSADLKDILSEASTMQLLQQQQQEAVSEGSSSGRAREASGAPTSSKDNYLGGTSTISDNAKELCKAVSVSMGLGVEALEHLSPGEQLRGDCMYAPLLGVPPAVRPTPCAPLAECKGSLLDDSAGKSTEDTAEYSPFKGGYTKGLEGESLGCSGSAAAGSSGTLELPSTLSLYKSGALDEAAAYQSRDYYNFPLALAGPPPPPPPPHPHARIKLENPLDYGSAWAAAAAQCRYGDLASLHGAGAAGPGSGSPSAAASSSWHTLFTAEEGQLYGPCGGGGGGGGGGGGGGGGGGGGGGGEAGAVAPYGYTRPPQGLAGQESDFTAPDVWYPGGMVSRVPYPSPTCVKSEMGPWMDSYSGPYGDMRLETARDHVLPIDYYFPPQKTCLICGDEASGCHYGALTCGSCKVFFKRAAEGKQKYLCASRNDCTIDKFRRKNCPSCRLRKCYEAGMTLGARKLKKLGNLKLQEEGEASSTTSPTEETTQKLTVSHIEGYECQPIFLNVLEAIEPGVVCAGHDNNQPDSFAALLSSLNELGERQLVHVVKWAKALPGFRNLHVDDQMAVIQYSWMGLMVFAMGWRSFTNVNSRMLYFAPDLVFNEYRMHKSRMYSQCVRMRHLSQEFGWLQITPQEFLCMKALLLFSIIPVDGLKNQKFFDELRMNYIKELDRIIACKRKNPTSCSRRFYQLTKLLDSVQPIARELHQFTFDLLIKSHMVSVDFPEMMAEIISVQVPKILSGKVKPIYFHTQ
The test can be described thus: Degradation of AR protein in VCaP cells (Western blot). As to conditions: 8 hours; for inhibition at 0.01 µM: compound at 10 nM, read-out: Degradation rate of the AR protein in VCaP cells, 10 nM (%); for inhibition at 0.1 µM: compound at 100 nM, read-out: Degradation rate of the AR protein in VCaP cells, 100 nM (%). A digest of the protocol: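 Western blot readout: AR band grayscale normalised to GAPDH, used to derive degradation rate. Lysates came from VCaP cells exposed to compound for 8 h, with solvent controls run in parallel.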
For orientation: In western blotting, separated proteins are transferred to a membrane and probed.

The next test relates to VCaP cells. Description: Inhibition of proliferation of VCaP cells (WST-8). The settings on record: Homo sapiens, read-out: IC50 for inhibiting the proliferation of VCaP cells. The gist of the method: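 Proliferation was read by WST-8 on day nine. Cells were VCaP FGC, seeded at 15000 cells per well in 10% FBS DMEM and kept at 37° C with 5% CO2.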
On the technique in general: Tetrazolium assays rely on reduction of a dye to a coloured formazan, in cell work by metabolically active cells.

The subject of a further test is LNCaP FGC cells. Description: Inhibition of proliferation of LNCaP cells (WST-8). The settings on record: Homo sapiens, LNCaP, 96 h. Here is the method: The cells were cultured in a cell culture incubator with 5% CO2 at 37° C. overnight. […] On the sixth day, 96 well plates were taken out, and 20 μL of WST-8 (Beytime, C0040) reagent was added to each well.
In test [2] the target is T2, AR protein (Homo sapiens, UniProt P10275, T878A).
T2 construct: degradation activity of the compounds disclosed in the present disclosure on AR protein in LNCaP cells; host or cells: LNCaP FGC
T2 sequence (P10275 1-920 T878A): T1 sequence (P10275 1-920) with T878A
The test can be described thus: Degradation of AR protein in LNCaP cells (Western blot). As to conditions: for inhibition at 0.01 µM: read-out: Degradation rates of the AR protein in LNCaP cells, 10 nM (%); for inhibition at 0.1 µM: read-out: Degradation rates of the AR protein in LNCaP cells, 100 nM (%). The gist of the method:
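Percent AR degradation was derived from GAPDH-normalised Western blot band intensities (infrared detection) in LNCaP lysates.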

Setting [3] is: VCaP cells, 168 hours, WST-8 absorbance at 450 nm.
Where [4] appears, read: LNCaP FGC cells, 96 hours, WST-8 absorbance at 450 nm, read-out: IC50 for inhibiting the proliferation of LNCaP cells.
Where [5] appears, read: LNCaP cells, compound 10 nM, 8 hours, Western blot grayscale, GAPDH internal reference.
The mark [6] stands for this setting: LNCaP cells, compound 100 nM, 8 hours, Western blot grayscale, GAPDH internal reference.

Numbering of substitutions follows the chain as printed. Like-named read-outs stand apart in the source and are kept apart here.

On to `N#Cc1ccc(O[C@H]2CC[C@H](NC(=O)c3ccc(N4CC(N5CCC6(CC5)COc5c(ccc7c5C(=O)N(C5CCC(=O)NC5=O)C7)C6)C4)nn3)CC2)cc1Cl` (stereo partly drawn) [Compound 191], for which the inhibition at 0.01 µM on AR protein [1] is 31%; on AR protein [2] (LNCaP, 8 h), -2%. The inhibition at 0.1 µM on AR protein [1] was found to be 68%; at AR protein [2] (LNCaP, 8 h), 4%. Also, the IC50 with VCaP cells (VCaP, 168 h) was over 90000 nM; in the test with LNCaP FGC cells (read-out: IC50 for inhibiting the proliferation of LNCaP cells, LNCaP FGC cells, 96 hours, WST-8 absorbance at 450 nm), 15200 nM.
Turning to `N#Cc1ccc(O[C@H]2CC[C@H](NC(=O)c3ccc(N4CCC(F)(CN5CCC6(CC5)COc5ccc7c(c5C6)C(=O)N(C5CCC(=O)NC5=O)C7)CC4)nn3)CC2)cc1Cl` (stereo partly drawn) [Compound 147], the inhibition at 0.01 µM was 24% on AR protein [1] and -3% at AR protein [2] (setting [5]). Moreover, the inhibition at 0.1 µM at AR protein [1] was determined as 47%; on AR protein [2] (setting [6]), 14%. Moreover, the IC50 in the test on VCaP cells (setting [3]) was determined as 2990 nM; with LNCaP FGC cells (setting [4]), 17000 nM.
As to `N#Cc1ccc(O[C@H]2CC[C@H](NC(=O)c3ccc(N4CCC5(CCC(N6CCC7(CC6)COc6cc8c(cc6C7)C(=O)N(C6CCC(=O)NC6=O)C8=O)CC5)C4)nn3)CC2)cc1Cl` (stereo partly drawn) [Compound 62], the values for the inhibition at 0.01 µM on AR protein [1] and at AR protein [2] (setting [5]) were 66% and 46%, respectively. In addition, the inhibition at 0.1 µM amounted to 74% on AR protein [1] and 76% on AR protein [2] (setting [6]). Besides, the IC50 with VCaP cells (setting [3]) amounted to 520 nM; in the test with LNCaP FGC cells (setting [4]), 820 nM.
On to `N#Cc1ccc(O[C@H]2CC[C@H](NC(=O)c3ccc(N4CC5(CCC(N6CCC7(CC6)COc6cc8c(cc67)C(=O)N(C6CCC(=O)NC6=O)C8=O)CC5)C4)nn3)CC2)cc1Cl` (stereo partly drawn) [Compound 53], for which the inhibition at 0.01 µM at AR protein [1] was found to be 62%; on AR protein [2] (setting [5]), 69%. Besides, the inhibition at 0.1 µM at AR protein [1] is 71%; at AR protein [2] (setting [6]), 85%. The IC50 is 43 nM in the test with VCaP cells (setting [3]) and 380 nM with LNCaP FGC cells (setting [4]).
As to `N#Cc1ccc(OC2CCC(NC(=O)c3ccc(N4CC5(CC(N6CCC7(CC6)COc6cc8c(cc6C7)C(=O)N(C6CCC(=O)NC6=O)C8=O)C5)C4)nn3)CC2)cc1Cl` (stereo not drawn) [Compound 66], the inhibition at 0.01 µM was found to be 49% on AR protein [1] and 72% on AR protein [2] (setting [5]). Also, the inhibition at 0.1 µM on AR protein [1] was 42%; at AR protein [2] (setting [6]), 74%. In addition, the IC50 was determined as 530 nM with VCaP cells (setting [3]) and 420 nM in the test on LNCaP FGC cells (setting [4]).
As for `N#Cc1ccc(O[C@H]2CC[C@H](NC(=O)c3ccc(N4CCC5(CC4)COc4cc6c(cc45)C(=O)N(C4CCC(=O)NC4=O)C6=O)nn3)CC2)cc1Cl` (stereo partly drawn) [Compound 52], the inhibition at 0.01 µM was 16% at AR protein [1] and 43% on AR protein [2] (setting [5]). In addition, the results for the inhibition at 0.1 µM on AR protein [1] and at AR protein [2] (setting [6]) were 26% and 22%, respectively. Further, the IC50 in the test on VCaP cells (setting [3]) was 6800 nM; in the test with LNCaP FGC cells (setting [4]), 4500 nM.
`N#Cc1ccc(O[C@H]2CC[C@H](NC(=O)c3ccc(N4CC5(CCC(C(=O)N6CCC7(CC6)COc6c7ccc7c6CN(C6CCC(=O)NC6=O)C7=O)CC5)C4)nn3)CC2)cc1Cl` (stereo partly drawn) [Compound 255]: the inhibition at 0.01 µM at AR protein [1] came out at 63%; on AR protein [2] (setting [5]) it was 55%. Further, the inhibition at 0.1 µM stood at 82% at AR protein [1] and 44% at AR protein [2] (setting [6]). In addition, the IC50 in the test on VCaP cells (setting [3]) amounted to 11 nM; in the test with LNCaP FGC cells (setting [4]), 50200 nM.
Consider `CC1(C)[C@H](NC(=O)c2ccc(N3CCC(CN4CCC5(CC4)COc4c5ccc5c4CN(C4CCC(=O)NC4=O)C5=O)CC3)nn2)C(C)(C)[C@H]1Oc1ccc(C#N)c(Cl)c1` (stereo partly drawn) [Compound 210], for which the inhibition at 0.01 µM is 28% on AR protein [1] and 61% on AR protein [2] (setting [5]). The values for the inhibition at 0.1 µM on AR protein [1] and on AR protein [2] (setting [6]) were 71% and 59%, respectively. In addition, the IC50 with VCaP cells (setting [3]) came to 2 nM; in the test on LNCaP FGC cells (setting [4]), 8 nM.
As to `N#Cc1ccc(O[C@H]2CC[C@H](NC(=O)c3ccc(N4CCC(O)(CN5CCC6(CC5)COc5c6ccc6c5C(=O)N(C5CCC(=O)NC5=O)C6=O)CC4)nn3)CC2)cc1C(F)(F)F` (stereo partly drawn) [Compound 214], the inhibition at 0.01 µM on AR protein [1] amounted to 7%; on AR protein [2] (setting [5]) it was 40%. Also, the inhibition at 0.1 µM was 63% on AR protein [1] and 68% on AR protein [2] (setting [6]). The figures for the IC50 in the test with VCaP cells (setting [3]) and with LNCaP FGC cells (setting [4]) were 48 nM and 3780 nM, respectively.
For `N#Cc1ccc(O[C@H]2CC[C@H](NC(=O)c3ccc(N4CC5(CCc6cc7c(cc6O5)C(=O)N(C5CCC(=O)NC5=O)C7=O)C4)nn3)CC2)cc1Cl` (stereo partly drawn) [Compound 6], the inhibition at 0.01 µM at AR protein [1] was found to be 13%; at AR protein [2] (setting [5]), 58%. Besides, the inhibition at 0.1 µM at AR protein [1] was 28%; at AR protein [2] (setting [6]), 46%. The IC50 worked out at 7500 nM in the test on VCaP cells (setting [3]) and 5170 nM in the test on LNCaP FGC cells (setting [4]).
For the compound `COc1cc(O[C@H]2C(C)(C)[C@H](NC(=O)c3ccc(N4CCC(CN5CC6(CCc7cc8c(cc7O6)C(=O)N(C6CCC(=O)NC6=O)C8=O)C5)CC4)cc3)C2(C)C)ccc1C#N` (stereo partly drawn) [Compound 277], the inhibition at 0.01 µM at AR protein [1] came out at 7%; at AR protein [2] (setting [5]), 16%. Also, the inhibition at 0.1 µM was found to be 54% on AR protein [1] and 60% at AR protein [2] (setting [6]). In addition, the IC50 in the test on VCaP cells (setting [3]) is 73 nM; in the test on LNCaP FGC cells (setting [4]), 10700 nM.
Regarding `N#Cc1ccc(O[C@H]2CC[C@H](NC(=O)c3ccc(N4CCC5(CCC(N6CCC7(CC6)COc6ccc8c(c6C7)C(=O)N(C6CCC(=O)NC6=O)C8)CC5)CC4)nn3)CC2)cc1Cl` (stereo partly drawn) [Compound 149], the inhibition at 0.01 µM on AR protein [1] was -4%; at AR protein [2] (setting [5]) it was 1%. The inhibition at 0.1 µM came to 26% at AR protein [1] and 1% at AR protein [2] (setting [6]). Also, the IC50 with VCaP cells (setting [3]) is 3170 nM; with LNCaP FGC cells (setting [4]), 3730 nM.
